Data: EP0326331B1, “Substituted quinolines and cinnolines” (Dow AgroSciences LLC, priority 1988, dated 1989)

Key:
Format in all cases: in vivo
[1] = tested on: corn rootworm; assay: Mite/insect screen, CRW; conditions: percent mortality, read-out: CRW RESULTS %
Outline: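 Percent mortality is evaluated once the standard exposure period ends. Test material is applied as a water dilution of an acetone/alcohol (50:50) stock carrying two sulfonate/nonionic emulsifiers (23 and 13 g per liter).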

[2] = tested on: Twospotted spider mites (Tetranychus urticae Koch); assay: Mite/insect screen, SM
Outline: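 Compounds dissolved in 50:50 acetone/alcohol containing sulfonate/nonionic emulsifier blends, then diluted with water to the indicated concentrations. Leaves sprayed on both surfaces to runoff at 10 psi and dried one hour. Percent mortality scored after standard exposure periods.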

[3] = tested on: Puccinia recondita tritici (leaf rust); assay: Test 1 greenhouse foliar spray screen, leaf rust on wheat; conditions: Puccinia recondita, foliar, Test 1, foliar spray on wheat; disease control rating at 400 ppm / 100 ppm
[4] = tested on: Pseudoperonospora cubensis (downy mildew); assay: Test 1 greenhouse foliar spray screen, downy mildew on squash
[5] = tested on: Erysiphe graminis tritici (powdery mildew); assay: Test 1 greenhouse foliar spray screen, powdery mildew on wheat; conditions: Blumeria graminis, foliar, Test 1, foliar spray on wheat; disease control rating at 400 ppm / 100 ppm; read-out: POWD MDEW
[6] = tested on: Pyricularia oryzae (rice blast); assay: whole plant or invertebrate; conditions: Pyricularia oryzae, foliar, read-out: RICE BLAST, Test 1, foliar spray on rice; disease control rating at 400 ppm / 100 ppm
[7] = tested on: southern armyworm (Spodopetra eridania Cramer); assay: Mite/insect screen, SAW; conditions: Spodoptera eridania, foliar, percent mortality, foliar spray on squash, read-out: SAW RESULTS %
Outline: (§1)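 Formulation: acetone/alcohol 50:50 + sulfonate/nonionic emulsifiers, water-diluted to indicated concs. Spray both leaf surfaces to runoff, 10 psi; dry 1 h. Armyworm: 2 excised uninfested leaves in Petri dish. Score % mortality after standard exposure.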

[8] = tested on: melon aphids (Aphis gossypii Glover); assay: Mite/insect screen, MA; conditions: Aphis gossypii, foliar, percent mortality, foliar spray on squash, read-out: MA RESULTS %
Outline: as §1

[9] = tested on: mites; assay: Field trials against pest species; conditions: field trial, host apples
Description: (§2) 4-[2-[4-(t-Butyl)phenyl]ethoxy]-8-fluoroquinoline (Example 221) was evaluated in a number of field trials. […]

[10] = tested on: potato leaf hopper; assay: Field trials against pest species; conditions: field trial, host alfalfa (Lucerne)
Description: as §2

[11] = tested on: apple aphid; assay: Field trials against pest species; conditions: field trial, host apples
Description: as §2

[12] = tested on: green cloverworm; assay: Field trials against pest species; conditions: field trial, host alfalfa (Lucerne)
Description: as §2

[13] = tested on: white apple leafhopper; assay: Field trials against pest species; conditions: field trial, host apples
Description: as §2

[14] = tested on: tarnished plant bug; assay: Field trials against pest species; conditions: field trial, host alfalfa (Lucerne)
Description: as §2

[15] = tested on: apple rust mite; assay: Field trials against pest species; conditions: field trial, host apples
Description: as §2

[16] = tested on: wheat aphid; assay: Field trials against pest species; conditions: field trial, host wheat
Description: as §2

[17] = tested on: greenhouse thrip; assay: Field trials against pest species; conditions: field trial, host azaleas
Description: as §2

[18] = tested on: thrip; assay: Field trials against pest species; conditions: field trial, host privet
Description: as §2

[19] = tested on: European red mite; assay: Field trials against pest species; conditions: field trial, host apples
Description: as §2

[20] = tested on: grape leafhopper; assay: Field trials against pest species; conditions: field trial, host grape (European)
Description: as §2

[21] = tested on: cotton aphid; assay: Field trials against pest species; conditions: field trial, host cotton
Description: as §2

[22] = tested on: green peach aphid; assay: Field trials against pest species; conditions: field trial
Description: as §2

[23] = tested on: yellow hickory aphid; assay: Field trials against pest species; conditions: field trial, host pecan nut
Description: as §2

[24] = tested on: Dawson-hop aphid; assay: Field trials against pest species; conditions: field trial, host hops
Description: as §2

[25] = tested on: grape thrip; assay: Field trials against pest species; conditions: field trial, host grape (European)
Description: as §2

[26] = tested on: bean aphid; assay: Field trials against pest species; conditions: field trial, host bean, faba broad
Description: as §2

[27] = tested on: twospotted spider mite; assay: Field trials against pest species; conditions: field trial, host broccoli
Description: as §2

[28] = tested on: pea aphid; assay: Field trials against pest species; conditions: field trial
Description: as §2

[29] = tested on: rosy apple aphid; assay: Field trials against pest species; conditions: field trial, host apples
Description: as §2

[30] = tested on: Erysiphe sp.; assay: Field tests against plant pathogens; conditions: field test, crop sugar beet
From the text: Selected compounds were field tested against a variety of plant pathogens. […]

[31] = tested on: Cercospora beticola (leaf spot); assay: Test 1 greenhouse foliar spray screen, leaf spot on sugar beet; conditions: Cercospora beticola; Test 1, foliar spray on sugar beet; disease control rating at 400 ppm / 100 ppm
[32] = tested on: Septoria tritici (leaf blotch); assay: Test 1 greenhouse foliar spray screen, leaf blotch on wheat; conditions: Zymoseptoria tritici; Test 1, foliar spray on wheat; disease control rating at 400 ppm / 100 ppm; read-out: LEAF BLOT
[33] = tested on: Botrytis cinerea (gray mold); assay: Test 1 greenhouse foliar spray screen, gray mold on grape berries; conditions: Botrytis cinerea, foliar; Test 1, spray on grape berries; disease control rating at 400 ppm / 100 ppm
[34] = tested on: Venturia inaequalis (apple scab); assay: Test 1 greenhouse foliar spray screen, apple scab on apple seedling; conditions: Venturia inaequalis; Test 1, foliar spray on apple seedling; disease control rating at 400 ppm / 100 ppm; read-out: APPL SCAB
[35] = summary statement in the description

SMILES: CC(C)(C)c1ccc(CCOc2ccnc3c(F)cccc23)cc1 [Example 221, 4-[2-[4-(t-butyl)phenyl]ethoxy]-8-fluoroquinoline]
- mortality at 12 ppm ([1]; CRW rate 12.00 ppm): 40%
- mortality at 24 ppm ([1]; CRW rate 24.00 ppm): 0%
- mortality at 200 ppm ([2]; Tetranychus urticae, foliar, percent mortality, rate 200 ppm, foliar spray on squash, read-out: SM RESULTS %): 90%
- mortality at 400 ppm ([2]; Tetranychus urticae, foliar, percent mortality, rate 400 ppm, foliar spray on squash, read-out: SM RESULTS %): 90%
- activity as miticides [2, 35]: particularly excellent activity
- pest or weed control at 400 ppm [3]: 90 to 100%
- pest or weed control at 400 ppm ([4]; Pseudoperonospora cubensis, foliar, Test 1, foliar spray on squash, disease control rating at 400 ppm / 100 ppm, read-out: DOWN MDEW): 90 to 100%
- activity against downy mildew [4, 35]: particularly excellent activity
- pest or weed control at 400 ppm [5]: 20 to 89%
- pest or weed control at 400 ppm [6]: 0 to 19%
- mortality at 200 ppm ([7]; rate 200 ppm): 0%
- mortality at 400 ppm ([7]; rate 400 ppm): 0%
- mortality at 200 ppm ([8]; rate 200 ppm): 90%
- mortality at 400 ppm ([8]; rate 400 ppm): 80%
- pest species against which it showed activity [9]: mites
- pest species against which it showed activity [10]: potato leaf hopper
- pest species against which it showed activity [11]: apple aphid
- pest species against which it showed activity [12]: green cloverworm
- pest species against which it showed activity [13]: white apple leafhopper
- pest species against which it showed activity [14]: tarnished plant bug
- pest species against which it showed activity [15]: apple rust mite
- pest species against which it showed activity [16]: wheat aphid
- pest species against which it showed activity [17]: greenhouse thrip
- pest species against which it showed activity [18]: thrip
- pest species against which it showed activity [19]: European red mite
- pest species against which it showed activity [20]: grape leafhopper
- pest species against which it showed activity [21]: cotton aphid
- pest species against which it showed activity ([22]; host apples): green peach aphid
- pest species against which it showed activity ([22]; host sugar beet): green peach aphid
- pest species against which it showed activity [23]: yellow hickory aphid
- pest species against which it showed activity [24]: Dawson-hop aphid
- pest species against which it showed activity [25]: grape thrip
- pest species against which it showed activity [26]: bean aphid
- pest species against which it showed activity [27]: twospotted spider mite
- pest species against which it showed activity ([28]; host alfalfa (Lucerne)): pea aphid
- pest species against which it showed activity ([28]; host pea, garden (English)): pea aphid
- pest species against which it showed activity [29]: rosy apple aphid
- pathogens against which compounds of the invention showed activity [30]: Erysiphe sp.
- pest or weed control at 400 ppm [31]: 90 to 100%
- pest or weed control at 400 ppm [32]: 90 to 100%
- pest or weed control at 400 ppm [33]: 0 to 19%
- pest or weed control at 400 ppm [34]: 20 to 89%
